The CheMixHub ionic liquid set

Experiment: xn = mol fraction of the nth substance listed

CCCCCC[n+]1ccn(C)c1.C[C@H](N)C(=O)[O-] + O
viscosity [mPa·s], 100 kPa
Conditions | 288.15 K | 293.15 K | 298.15 K | 303.15 K | 308.15 K | 313.15 K | 318.15 K | 323.15 K | 328.15 K
x1 = 0.000299 | 1.156 | 1.017 | 0.902 | 0.809 | 0.728 | 0.661 | 0.603 | 0.554 | 0.512
x1 = 0.0003981 | 1.162 | 1.022 | 0.907 | 0.813 | 0.732 | 0.664 | 0.606 | 0.557 | 0.514
x1 = 0.0004989 | 1.167 | 1.026 | 0.911 | 0.816 | 0.735 | 0.666 | 0.608 | 0.559 | 0.516
x1 = 0.0009991 | 1.203 | 1.057 | 0.937 | 0.838 | 0.755 | 0.684 | 0.626 | 0.573 | 0.53
x1 = 0.003 | 1.361 | 1.191 | 1.05 | 0.933 | 0.833 | 0.754 | 0.684 | 0.626 | 0.576
x1 = 0.00499 | 1.512 | 1.325 | 1.162 | 1.027 | 0.916 | 0.825 | 0.745 | 0.681 | 0.625
x1 = 0.006965 | 1.656 | 1.445 | 1.272 | 1.118 | 0.997 | 0.893 | 0.805 | 0.736 | 0.672
x1 = 0.008965 | 1.819 | 1.573 | 1.367 | 1.202 | 1.069 | 0.958 | 0.866 | 0.781 | 0.717
x1 = 0.01103 | 1.954 | 1.694 | 1.475 | 1.287 | 1.145 | 1.026 | 0.928 | 0.831 | 0.763
x1 = 0.01294 | 2.097 | 1.814 | 1.577 | 1.377 | 1.223 | 1.087 | 0.984 | 0.887 | 0.807
x1 = 0.01501 | 2.242 | 1.953 | 1.69 | 1.466 | 1.303 | 1.161 | 1.035 | 0.936 | 0.854
x1 = 0.01801 | 2.455 | – | – | – | – | – | – | – | –

CCOS(=O)(=O)[O-].CC[n+]1ccn(C)c1 + CC[n+]1ccn(C)c1.N#C[S-]
Conditions | viscosity [mPa·s]
353.15 K, 100 kPa, x2 = 0 | 15

O=[N+]([O-])[O-].O=[N+]([O-])[O-].[Mg+2] + O + CC[NH3+].O=[N+]([O-])[O-]
100 kPa
Conditions | electrical conductivity [S/m] | viscosity [mPa·s]
223 K, x1 = 0.2128, x2 = 0.6185 | 0.001 | –
233 K, x1 = 0.2128, x2 = 0.6185 | 0.006 | –
243 K, x1 = 0.1395, x2 = 0.4931 | 0.002 | –
243 K, x1 = 0.2128, x2 = 0.6185 | 0.02 | –
253 K, x1 = 0.1395, x2 = 0.4931 | 0.019 | –
253 K, x1 = 0.2128, x2 = 0.6185 | 0.052 | –
263 K, x1 = 0.1395, x2 = 0.4931 | 0.077 | –
263 K, x1 = 0.2128, x2 = 0.6185 | 0.113 | –
273 K, x1 = 0.1395, x2 = 0.4931 | 0.206 | –
273 K, x1 = 0.2128, x2 = 0.6185 | 0.216 | –
283 K, x1 = 0.1395, x2 = 0.4931 | 0.429 | –
283 K, x1 = 0.2128, x2 = 0.6185 | 0.375 | –
288.15 K, x1 = 0.1395, x2 = 0.4931 | – | 172
288.15 K, x1 = 0.2128, x2 = 0.6185 | – | 334
293 K, x1 = 0.1395, x2 = 0.4931 | 0.76 | –
293 K, x1 = 0.2128, x2 = 0.6185 | 0.602 | –
293.15 K, x1 = 0.1395, x2 = 0.4931 | – | 138.7
293.15 K, x1 = 0.2128, x2 = 0.6185 | – | 253
298.15 K, x1 = 0.1395, x2 = 0.4931 | – | 112.6
298.15 K, x1 = 0.2128, x2 = 0.6185 | – | 193
303 K, x1 = 0.1395, x2 = 0.4931 | 1.2 | –
303 K, x1 = 0.2128, x2 = 0.6185 | 0.91 | –
303.15 K, x1 = 0.1395, x2 = 0.4931 | – | 92
303.15 K, x1 = 0.2128, x2 = 0.6185 | – | 148.9
308.15 K, x1 = 0.1395, x2 = 0.4931 | – | 75.7
308.15 K, x1 = 0.2128, x2 = 0.6185 | – | 115.8
313 K, x1 = 0.1395, x2 = 0.4931 | 1.74 | –
313 K, x1 = 0.2128, x2 = 0.6185 | 1.31 | –
313.15 K, x1 = 0.1395, x2 = 0.4931 | – | 62.7
313.15 K, x1 = 0.2128, x2 = 0.6185 | – | 90.7
323 K, x1 = 0.1395, x2 = 0.4931 | 2.37 | –
323 K, x1 = 0.2128, x2 = 0.6185 | 1.8 | –
333 K, x1 = 0.1395, x2 = 0.4931 | 3.08 | –
333 K, x1 = 0.2128, x2 = 0.6185 | 2.39 | –
343 K, x1 = 0.1395, x2 = 0.4931 | 3.86 | –
343 K, x1 = 0.2128, x2 = 0.6185 | 3.08 | –
353 K, x1 = 0.1395, x2 = 0.4931 | 4.69 | –
353 K, x1 = 0.2128, x2 = 0.6185 | 3.88 | –
363 K, x1 = 0.1395, x2 = 0.4931 | 5.56 | –
363 K, x1 = 0.2128, x2 = 0.6185 | 4.78 | –
373 K, x1 = 0.1395, x2 = 0.4931 | 6.46 | –
373 K, x1 = 0.2128, x2 = 0.6185 | 5.78 | –

CCCn1cc[n+](CCC)c1.O=S(=O)([N-]S(=O)(=O)C(F)(F)F)C(F)(F)F + O
100 kPa, x2 = 0.2232
Conditions | viscosity [mPa·s]
303.15 K | 29.21
313.15 K | 20.49
333.15 K | 11.48
348.15 K | 8.09
363.15 K | 6

Cn1cc[n+](CCCN)c1.F[B-](F)(F)F + CC#N
electrical conductivity [S/m], 101 kPa, frequency 3 MHz
Conditions | x1 = 0.1001 | x1 = 0.2005 | x1 = 0.3 | x1 = 0.399 | x1 = 0.4996 | x1 = 0.598 | x1 = 0.6975 | x1 = 0.7983 | x1 = 0.8987 | x1 = 1
288.15 K | 1.69 | 1.25 | 0.915 | 0.614 | 0.416 | 0.281 | 0.168 | 0.088 | 0.044 | 0.011
293.15 K | 1.94 | 1.49 | 1.103 | 0.749 | 0.519 | 0.35 | 0.211 | 0.117 | 0.062 | 0.018
298.15 K | 2.243 | 1.742 | 1.309 | 0.906 | 0.625 | 0.427 | 0.267 | 0.153 | 0.085 | 0.026
303.15 K | 2.56 | 2.036 | 1.535 | 1.08 | 0.746 | 0.515 | 0.329 | 0.195 | 0.112 | 0.04
308.15 K | 2.89 | 2.343 | 1.79 | 1.27 | 0.874 | 0.611 | 0.402 | 0.243 | 0.144 | 0.055
313.15 K | 3.24 | 2.68 | 2.06 | 1.48 | 1.021 | 0.721 | 0.487 | 0.301 | 0.182 | 0.072
318.15 K | 3.622 | 3.05 | 2.36 | 1.7 | 1.17 | 0.844 | 0.58 | 0.364 | 0.225 | 0.094
323.15 K | 4.04 | 3.46 | 2.68 | 1.938 | 1.344 | 0.982 | 0.692 | 0.437 | 0.276 | 0.124

viscosity [mPa·s], 101 kPa
Conditions | x1 = 0.1001 | x1 = 0.2005 | x1 = 0.3 | x1 = 0.399 | x1 = 0.4996 | x1 = 0.598 | x1 = 0.6975 | x1 = 0.7983 | x1 = 0.8987 | x1 = 1
288.15 K | 18.13 | 36 | 55.18 | 75.79 | 98.1 | 121.5 | 147 | 174.5 | 202.6 | 231.2
293.15 K | 13.81 | 27.35 | 42.52 | 58.84 | 76.44 | 95.92 | 116.8 | 139.6 | 161.9 | 185.4
298.15 K | 10.64 | 21.28 | 33.13 | 46.19 | 60.38 | 76.12 | 93.68 | 112 | 130.2 | 149.6
303.15 K | 8.386 | 16.73 | 26.24 | 36.56 | 48.34 | 61.21 | 75.42 | 90.05 | 104.8 | 121.1
308.15 K | 6.804 | 13.48 | 21.1 | 29.46 | 38.98 | 49.81 | 61.47 | 74.04 | 86.51 | 100.2
313.15 K | 5.588 | 11.04 | 17.16 | 24.04 | 32.08 | 40.8 | 50.47 | 61.67 | 71.62 | 83.06
318.15 K | 4.761 | 9.062 | 14.08 | 19.9 | 26.59 | 33.85 | 41.94 | 51.42 | 59.82 | 69.26
323.15 K | 4.016 | 7.65 | 11.81 | 16.54 | 22.05 | 28.29 | 35.74 | 43.45 | 50.53 | 58.45
